Experimental data taken from article PMC10045534, “Preparation and Evaluation of 6-Gingerol Derivatives as Novel Antioxidants and Antiplatelet Agents” (Antioxidants, 2023).

Tests used:
[1] = PAMPA-BBB permeability; assay type: in vitro ADME; settings: after 4 h at 37 °C in PBS, pH 7.4, mean ± SEM, n = 3; for Papp at 4 h, 500 μM: PAMPA, read-out: PAMPA-BBB Pe
Procedure: (§1) Preparative purifications over RP-HPLC were performed on a Kinetex XB C18 (5 μm, 250 × 21.2 mm) column on an Armen Spot Prep II integrated HPLC purification system (Gilson, Middleton, WI, USA) with dual-wavelength detection, with an adequately chosen combination of acetonitrile–water, and a flow rate of 15 mL/min. The purity of the compounds obtained was determined by RP-HPLC analyses on a system of two Jasco PU 2080 pumps, a Jasco AS-2055 Plus intelligent sampler connected to a JASCO LC-Net II/ADC equipped with a Jasco MD-2010 Plus PDA detector (Jasco International Co. Ltd., Hachioji, Tokyo, Japan) utilizing a Kinetex C-18 (5 μm, 250 × 4.6 mm) column (Phenomenex Inc., Torrance, CA, USA) and applying a gradient of 30%–100% aqueous AcN in 30 min followed by 100% ACN for 10 min with a flow rate of 1 mL/min. Analysis of samples from the PAMPA and kinetic solubility assays was performed the same way, by using 3-point calibrations and integrating each compound at its UV absorption maximum.
Blood–brain barrier-specific (BBB) permeability measurements were carried out us- ing the PAMPA-BBB model. […] The solutions were sonicated for 10 min at room temperature. To prepare the artificial BBB-specific membrane, 16 mg BPLE were dissolved in 600 μL of n-dodecane:n-hexane (25:75). Each well of the donor plate (MultiscreenTM-IP, MAIPNTR10, pore size […], Merck kGaA) was coated with 5 μL lipid solution and fitted into the acceptor plate containing 300 μL PBS (pH 7.4) with 5% DMSO, and 150–150 μL of the PBS solutions (made from the DMSO stock solutions) were placed on the donor plate’s artificial membrane. The sandwich plate system was covered with a tissue of wet paper and a plastic lid to avoid evaporation of the solvent, and it was incubated at 37 °C for 4 h. In the end, the initial 500 μM solutions ( cD0 ), the donor ( cDt ) and acceptor solution ( cAt ) were analysed by HPLC-UV (see Section 2.1). BBB permeability was calculated using the effective permeability equation used for iso-pH conditions described by A. Avdeef as follows. (2) Pe=−2.303/A·t−τss·1/1+rv·lg−rv+1+rv/1−MR·cDt/cD0 (3) MR=1−cDt/cD0−VAcAt/VDcD0 where A is the filter area (0.3 cm^2), VD and VA are the volumes in the donor (0.15 cm^3) and acceptor phase (0.3 cm^3), t is the incubation time (s), τss is the time to reach steady state (s), cDt is the concentration of the compound in the donor phase at time point t (mol/cm^3), cD0 is the concentration of the compound in the donor phase at time point zero (mol/cm^3), cAt is the concentration of the compound in the acceptor phase at time point t (mol/cm^3), rv is the aqueous compartment volume ratio (VD/VA).

[2] = DPPH free radical scavenging assay; settings: for IC50: 30 min, room temperature, MeOH, mean ± SEM, n = 2, read-out: DDPH IC50
Procedure: All bioactivity data processing, including the calculation of inhibition percentage, mean and corresponding standard error of the mean (SEM), and IC50 values, was performed by GraphPad Prism 8.0 (La Jolla, CA, USA). IC50 values were calculated from the sigmoidal dose–response curves obtained by the log(inhibitor) vs. response and variable slope (DPPH assay) or the log(inhibitor) vs. normalised response and variable slope nonlinear regression model. On the results obtained, no statistical evaluation was performed; instead, differences greater than two-fold were considered relevant. Plotting of the antiplatelet and COX-1 inhibitory IC50 values and the linear regression of the data was performed by Microsoft Excel.
DPPH (1,10-diphenyl-2-picrylhydrazyl) was purchased from Thermo Fisher Scientific. DPPH free radical scavenging assay was performed with some modifications based on the method by previous study. Briefly, in a 96-well microplate, microdilutions of samples (100 µL, starting from 200 µM in HPLC grade MeOH) were made and 100 µL of DPPH reagent (100 µM in MeOH) was added. After 30 min at room temperature in the dark, the absorbance was measured at 550 nm using a FluoStar Optima plate reader (software version 2.20R2, BMG Labtech Ortenberg, Germany). For the blank control, MeOH was used. The scavenging activity was calculated as Inhibition (%) = (A0 − As)/A0 × 100, and IC50 values were calculated by GraphPad Prism 8.0 (La Jolla, CA, USA).

[3] = Peroxynitrite scavenging (pyrogallol red); settings: % inhibition at 500 µM; mean ± SEM, n = 3
Procedure: Peroxynitrite was synthesised by a continuous flow system using syringe pumps as published previously. Briefly, an acidic solution of hydrogen peroxide (0.6 M H2O2, 0.7 M HCl) was pumped to a junction alongside of sodium nitrite solution (0.6 M) at a flow rate of 1.5 mL/min. After passing 10 cm of tubing, it was mixed with a sodium hydroxide solution (1.5 M), also pumped at 1.5 mL/min. The resulting peroxynitrite solution was a bright yellow colour. The tubing around the reaction was submerged in ice. The concentration of the solution was determined by spectrophotometry and was adjusted to 30 mM with 0.1 M NaOH solution.
In a 96-well microplate 245 µL of pyrogallol red (100 µM final concentration, dissolved in 0.1 M glycine buffer) was mixed with 50 µL of sample (0.5 mM final concentration, dissolved in DMSO) and 5 µL ONOO^– solution (500 µM final concentration, freshly prepared). After mixing and keeping it at room temperature for 30 min the absorbance was measured at 550 nm using a FluoStar Optima plate reader (software version 2.20R2, BMG Labtech, Ortenberg, Germany).

[4] = Kinetic aqueous solubility in PBS pH 7.4; assay type: physicochemical; settings: after 2 h at 37 °C in PBS, 500 μM target concentration, mean ± SEM, n = 3; for solubility kinetic at 2 h: PBS (pH 7.4), 37 °C, pH 7.4, aqueous buffer, kinetic from dmso stock
Procedure: as §1
In a 96-well polypropylene plate (Greiner Bio-One, Kremsmünster, Austria), 15 μL stock solutions were added to 285 μL PBS (pH 7.4) to make starting donor solution with 500 μM as target concentration. For each sample, 3 replicates were measured. The samples were covered and shaken at 37 °C, 300 rpm for 2 h (Heidolph Titramax 1000, Heidolph Instruments GmbH & Co. KG, Schwabach, Germany). After that, each sample was transferred into a filter plate (MSSBLPC, Multiscreen Filter plate, Merck kGaA) and filtered (Vaccum Manifold, Merck kGaA, Darmstadt, Germany). The filtrates were transferred into HPLC vials, and acetonitrile (AcN) was added to aliquot to avoid precipitation. The final solvent ratio was AcN:PBS (70:30). Filtrate concentration was determined by HPLC-UV (see Section 2.1) using 3-points calibration.

Row | Compound | Papp at 4 h, 500 μM [1] | PAMPA-BBB MR (%) [1] | PAMPA-BBB Pe [1] | IC50 [2] | solubility kinetic at 2 h [4] | Kinetic Solubility [4] | ONOO^– Scavenging (%) [3] | DPPH scavenging activity (in words) [2]
1 | CCCCCCCC(=O)CCc1ccc(O)c(OC)c1 [Compound 3, 4,5-dihydro-6-shogaol] |  | -/11.0 ± 0.7% |  | 9.43 ± 0.16 µM | 45.2 ± 2.7 µM |  | <5.0% | 
2 | CCCCC[C@H](O)CC(=O)CCc1ccc(O)c(OC)c1 [Compound 1, (S)-5-hydroxy-1-(4-hydroxy-3-methoxyphenyl)decan-3-one] | 3.52 ± 0.24 ×10⁻⁶ cm/s | 23.8 ± 1.5% | ≥ 25 ·10^−7 cm/s | 8.92 ± 0.46 µM |  |  | <5.0% | 
3 | CCCCC/C=C/C(=O)CCc1ccc(O)c(OC)c1 [Compound 2, 6-shogaol] | 3.17 ± 0.36 ×10⁻⁶ cm/s | 20.9 ± 3.9% | ≥ 25 ·10^−7 cm/s | 11.4 ± 0.49 µM | > 100 µM |  | <5.0% | 
4 | CCCCC[C@H](O)C[C@H](O)CCc1ccc(O)c(OC)c1 [Compound 5, (3R,5S)-1-(4-hydroxy-3-methoxyphenyl)decane-3,5-diol] | 3.39 ×10⁻⁶ cm/s | 9.1 ± 7.6% | ≥ 25 ·10^−7 cm/s | 6.51 ± 0.28 µM |  |  | <5.0% | 
5 | CCCCCCCC(CCc1ccc(O)c(OC)c1)=NO [Compound 4, 1-(4-hydroxy-3-methoxyphenyl)decan-3-one oxime] |  | -/4.0 ± 11.1% |  | 8.56 ± 0.07 µM | 75.1 ± 7.3 µM |  | <5.0% | 

Second part, led by results:

Row | Papp at 4 h, 500 μM [1] | PAMPA-BBB MR (%) [1] | PAMPA-BBB Pe [1] | IC50 [2] | solubility kinetic at 2 h [4] | Kinetic Solubility [4] | Compound | ONOO^– Scavenging (%) [3] | DPPH scavenging activity (in words) [2]
6 | 3.22 ± 0.34 ×10⁻⁶ cm/s | 12.1 ± 5.2% | ≥ 25 ·10^−7 cm/s | 14.1 ± 0.21 µM |  |  | CCCCCCCNC(=O)CCc1ccc(O)c(OC)c1 [Compound 22] | <5.0% | 
7 |  |  |  | > 100 µM |  | < LOD | CCCCCc1cc(/C=C/c2ccc(O)cc2)on1 [Compound 18, (E)-4-(2-(3-pentylisoxazol-5-yl)vinyl)phenol] | 5.64 ± 1.31% | inactive
8 | 2.07 ± 0.43 ×10⁻⁶ cm/s | 3.1 ± 5.7% |  | > 200 µM | 203 ± 5.5 µM |  | CCCCCc1cc(CCc2ccc(O)cc2)[nH]n1 [Compound 15, 4-(2-(3-pentyl-1H-pyrazol-5-yl)ethyl)phenol] | <5.0% | inactive
9 | 2.74 ± 0.16 ×10⁻⁶ cm/s | 18.5 ± 2.7% | ≥ 25 ·10^−7 cm/s | 13.82 ± 0.03 µM |  |  | CCCCC[C@H](O)C[C@@H](O)CCc1ccc(O)c(OC)c1 [Compound 6, (3S,5S)-1-(4-hydroxy-3-methoxyphenyl)decane-3,5-diol] | <5.0% | 
10 | 1.58 ± 0.08 ×10⁻⁶ cm/s | 33.6 ± 4.6% |  | 16.2 ± 0.46 µM | 277 ± 5.5 µM |  | CCCCCc1cc(CCc2ccc(O)c(OC)c2)[nH]n1 [Compound 14, 2-methoxy-4-(2-(3-pentyl-1H-pyrazol-5-yl)ethyl)phenol] | <5.0% | 
11 |  |  |  | 19 ± 1.63 µM | 89.4 ± 3.1 µM |  | CCCCCc1cc(/C=C/c2ccc(O)cc2)[nH]n1 [Compound 16, (E)-4-(2-(3-pentyl-1H-pyrazol-5-yl)vinyl)phenol] | <5.0% | 
12 |  |  |  | 8.13 ± 0.21 µM | 10.9 ± 2 µM |  | CCCCCc1cc(/C=C/c2ccc(O)c(OC)c2)on1 [Compound 17, (E)-2-methoxy-4-(2-(3-pentylisoxazol-5-yl)vinyl)phenol] | 38.40 ± 3.05% | 
